IC50 data for 17 compounds are collected here from patent US11420969B2 (Exonate Limited, priority 2017, dated 2022).

One data set has as its target T1, CYP1A2 (Homo sapiens, UniProt P05177).
T1 construct: from tissue; host or cells: human liver microsomes
T1 sequence (P05177 1-516): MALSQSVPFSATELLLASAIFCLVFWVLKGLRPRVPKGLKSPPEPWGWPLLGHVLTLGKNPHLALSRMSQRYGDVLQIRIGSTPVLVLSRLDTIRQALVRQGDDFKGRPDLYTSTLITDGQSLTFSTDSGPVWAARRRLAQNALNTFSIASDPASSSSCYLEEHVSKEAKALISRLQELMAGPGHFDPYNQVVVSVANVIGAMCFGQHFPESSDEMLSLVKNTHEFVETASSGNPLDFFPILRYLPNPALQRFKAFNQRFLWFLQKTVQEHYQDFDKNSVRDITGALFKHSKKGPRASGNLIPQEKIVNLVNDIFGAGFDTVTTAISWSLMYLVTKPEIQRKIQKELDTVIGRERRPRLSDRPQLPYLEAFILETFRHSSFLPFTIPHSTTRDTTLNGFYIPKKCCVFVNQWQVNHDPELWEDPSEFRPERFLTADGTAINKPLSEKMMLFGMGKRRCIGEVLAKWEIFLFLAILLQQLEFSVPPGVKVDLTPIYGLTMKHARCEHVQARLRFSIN
Put plainly: CYP inhibition assay, human liver microsomes, substrate tacrine. Type of data set: in vitro ADME. As for the experimental part:
(§1) 2 μL of test compound/Positive Inhibitor working solutions is then added to the reaction plate (2 μL/well). For control, 2 μL of Acetonitrile (ACN) containing DMSO (without inhibitor) is added to the reaction plate. 20 μL of substrate pool is added to all the wells of the reaction plate. The samples are mixed in a vortexer and pre-incubated at 37° C. for 20 min. The NADPH solution is pre-warmed at 37° C. for 5 min. 20 μL of pre-warmed NADPH solution is added to the reaction plate and then incubated at 37° C. for 10 min. The reaction is terminated by adding cold ACN (200 μL/well) to the reaction mixture and centrifuging at 4,000 rpm for 20 minutes. After centrifugation, supernatant is separated and analyzed by LC-MS/MS.
(§2) % inhibition and IC50 are calculated using Graphpad Prism software.
In general terms: Liver microsomes are vesicles of endoplasmic reticulum, rich in cytochrome P450 enzymes.

In the next data set the target is T2, CYP2D6 (Homo sapiens, UniProt P10635).
T2 construct: from tissue; host or cells: human liver microsomes
T2 sequence (P10635 whole entry): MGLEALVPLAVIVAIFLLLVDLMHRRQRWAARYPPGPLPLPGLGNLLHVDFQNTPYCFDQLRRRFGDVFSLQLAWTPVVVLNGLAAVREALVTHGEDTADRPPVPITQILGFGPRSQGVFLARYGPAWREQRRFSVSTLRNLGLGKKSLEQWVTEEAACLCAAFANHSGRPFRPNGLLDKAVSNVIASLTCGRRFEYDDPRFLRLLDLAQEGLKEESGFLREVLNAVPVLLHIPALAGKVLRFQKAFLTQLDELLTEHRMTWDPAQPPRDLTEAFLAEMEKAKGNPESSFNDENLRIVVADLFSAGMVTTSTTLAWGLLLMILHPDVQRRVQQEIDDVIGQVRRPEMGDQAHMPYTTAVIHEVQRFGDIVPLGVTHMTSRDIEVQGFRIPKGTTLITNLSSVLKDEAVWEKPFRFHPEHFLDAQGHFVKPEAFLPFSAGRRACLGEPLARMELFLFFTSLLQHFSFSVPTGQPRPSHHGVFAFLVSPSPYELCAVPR
Put plainly: biochemical. Type of data set: in vitro ADME. How it is done:
158 μL of Human Liver Microsomes working stock solution is added to a reaction plate (0.253 mg/mL, 158 μL/well). 2 μL of test compound/Positive Inhibitor working solutions is then added to the reaction plate (2 μL/well). For control, 2 μL of Acetonitrile (ACN) containing DMSO (without inhibitor) is added to the reaction plate. 20 μL of substrate pool is added to all the wells of the reaction plate. The samples are mixed in a vortexer and pre-incubated at 37° C. for 20 min. The NADPH solution is pre-warmed at 37° C. for 5 min. 20 μL of pre-warmed NADPH solution is added to the reaction plate and then incubated at 37° C. for 10 min. The reaction is terminated by adding cold ACN (200 μL/well) to the reaction mixture and centrifuging at 4,000 rpm for 20 minutes. After centrifugation, supernatant is separated and analyzed by LC-MS/MS.
as §2

Another data set addresses T3, CYP2C19 (Homo sapiens, UniProt P33261).
T3 construct: from tissue; host or cells: human liver microsomes
Put plainly: CYP inhibition assay, human liver microsomes, substrate S-mephenytoin. Type of data set: in vitro ADME. How it is done: as §1, §2

A further data set deals with T4, CYP3A4 (Homo sapiens, UniProt P08684).
T4 construct: from tissue; host or cells: human liver microsomes
T4 sequence (P08684 whole entry): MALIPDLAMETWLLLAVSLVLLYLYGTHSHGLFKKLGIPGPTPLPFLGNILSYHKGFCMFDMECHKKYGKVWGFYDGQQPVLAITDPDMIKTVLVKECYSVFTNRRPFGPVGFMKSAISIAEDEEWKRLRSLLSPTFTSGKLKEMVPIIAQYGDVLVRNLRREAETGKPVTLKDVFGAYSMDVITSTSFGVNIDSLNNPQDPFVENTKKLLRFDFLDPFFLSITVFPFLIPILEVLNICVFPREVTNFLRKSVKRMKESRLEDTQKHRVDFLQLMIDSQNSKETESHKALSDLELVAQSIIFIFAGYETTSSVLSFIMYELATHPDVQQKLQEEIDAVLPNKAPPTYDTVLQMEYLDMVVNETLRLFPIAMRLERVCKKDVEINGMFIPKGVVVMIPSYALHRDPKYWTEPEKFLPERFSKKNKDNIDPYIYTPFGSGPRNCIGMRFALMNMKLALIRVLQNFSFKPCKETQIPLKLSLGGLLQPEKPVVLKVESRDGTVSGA
Put plainly: CYP inhibition assay, human liver microsomes, substrate midazolam. Format: in vitro ADME. How it is done: as §1, §2

The next data set deals with SRPK1 (Homo sapiens, UniProt Q96SB4). Put plainly: In vitro SRPK1 assay (Kinase-Glo). Format: biochemical. For orientation: In Kinase-Glo more light means more ATP remaining.
Chain of SRPK1 (Q96SB4 whole entry, species assumed): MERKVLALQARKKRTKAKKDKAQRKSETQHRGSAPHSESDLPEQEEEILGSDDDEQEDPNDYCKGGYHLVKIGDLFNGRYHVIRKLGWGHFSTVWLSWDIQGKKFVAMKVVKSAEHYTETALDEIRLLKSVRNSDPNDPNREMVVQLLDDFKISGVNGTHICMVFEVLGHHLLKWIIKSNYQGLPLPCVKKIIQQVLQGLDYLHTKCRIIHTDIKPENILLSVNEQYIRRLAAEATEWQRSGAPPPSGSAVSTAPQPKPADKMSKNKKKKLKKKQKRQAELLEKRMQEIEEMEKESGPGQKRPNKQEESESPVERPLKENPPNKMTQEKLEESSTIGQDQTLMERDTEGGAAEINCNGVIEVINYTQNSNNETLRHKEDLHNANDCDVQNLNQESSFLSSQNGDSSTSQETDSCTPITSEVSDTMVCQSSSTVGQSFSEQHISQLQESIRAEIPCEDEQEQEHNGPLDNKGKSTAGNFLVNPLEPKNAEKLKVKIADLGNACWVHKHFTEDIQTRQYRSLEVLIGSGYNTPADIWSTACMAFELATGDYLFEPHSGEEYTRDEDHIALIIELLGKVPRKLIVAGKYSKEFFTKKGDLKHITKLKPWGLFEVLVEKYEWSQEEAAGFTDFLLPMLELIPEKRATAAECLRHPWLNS
The target of another data set is T5, CYP2C9 (Homo sapiens, UniProt P11712).
T5 construct: from tissue; host or cells: human liver microsomes
T5 sequence (P11712 whole entry): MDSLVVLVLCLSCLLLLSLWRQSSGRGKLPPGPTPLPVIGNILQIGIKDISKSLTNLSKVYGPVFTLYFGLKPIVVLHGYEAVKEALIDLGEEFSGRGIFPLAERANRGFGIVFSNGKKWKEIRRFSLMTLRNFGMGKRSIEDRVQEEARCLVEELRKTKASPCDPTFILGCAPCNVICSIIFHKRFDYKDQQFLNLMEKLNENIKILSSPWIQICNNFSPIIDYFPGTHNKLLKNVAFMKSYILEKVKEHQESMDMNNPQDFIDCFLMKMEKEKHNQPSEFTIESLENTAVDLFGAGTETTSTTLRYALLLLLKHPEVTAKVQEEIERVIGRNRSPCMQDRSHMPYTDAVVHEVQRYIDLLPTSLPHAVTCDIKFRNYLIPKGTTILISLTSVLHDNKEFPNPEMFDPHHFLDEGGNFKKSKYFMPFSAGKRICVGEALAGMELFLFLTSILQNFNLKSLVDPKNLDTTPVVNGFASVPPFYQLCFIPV
Put plainly: CYP inhibition assay, human liver microsomes, substrate diclofenac. Type of data set: in vitro ADME. As for the experimental part:
as §1, §2

The mark [1] stands for this setting: human liver microsomes, 10 min incubation, LC-MS/MS, read-out: CYP Inhibition Activity (IC50/nM) CYP1A2.
The mark [2] stands for this setting: human liver microsomes, 10 min incubation, LC-MS/MS, read-out: CYP Inhibition Activity (IC50/nM) CYP2C19.
[3] abbreviates: human liver microsomes, 10 min incubation, LC-MS/MS, read-out: CYP Inhibition Activity (IC50/nM) CYP3A4.
[4] abbreviates: human liver microsomes, 10 min incubation, LC-MS/MS, read-out: CYP Inhibition Activity (IC50/nM) CYP2C9.

Read-outs that look alike come from different tables or passages of the source.

T3 sequence (P33261 whole entry): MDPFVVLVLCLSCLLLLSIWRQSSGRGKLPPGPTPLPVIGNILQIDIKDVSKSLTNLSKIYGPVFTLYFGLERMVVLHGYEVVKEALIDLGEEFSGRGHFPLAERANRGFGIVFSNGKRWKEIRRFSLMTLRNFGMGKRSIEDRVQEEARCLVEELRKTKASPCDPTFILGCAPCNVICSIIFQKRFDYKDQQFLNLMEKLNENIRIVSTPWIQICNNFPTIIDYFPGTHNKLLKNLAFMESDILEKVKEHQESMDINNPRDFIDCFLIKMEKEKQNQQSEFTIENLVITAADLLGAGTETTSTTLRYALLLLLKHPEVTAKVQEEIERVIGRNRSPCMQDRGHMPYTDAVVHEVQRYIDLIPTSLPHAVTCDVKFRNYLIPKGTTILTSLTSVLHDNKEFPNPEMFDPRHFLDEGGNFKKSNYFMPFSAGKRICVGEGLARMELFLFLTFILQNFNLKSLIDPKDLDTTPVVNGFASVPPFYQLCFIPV

Take `CC1(O)CCN(c2ccc(Cl)cc2NC(=O)c2ccc(-c3ccncc3)o2)CC1` [Example 5, N-(5-chloro-2-(4-hydroxy-4-methylpiperidin-1-yl)phenyl)-5-(pyridin-4-yl)furan-2-carboxamide]: the IC50 was 8130 nM at CYP1A2 (setting [1]); 5130 nM at CYP2D6; 2180 nM on CYP2C19 (setting [2]); 670 nM on CYP3A4 (setting [3]); 0.5 nM against SRPK1; 660 nM on CYP2C9 (setting [4]).
Take `O=C(Nc1cc(C(F)(F)F)ccc1N1CCCC(O)CC1)c1ccccn1` (racemic) [Example 43, N-(2-(4-hydroxyazepan-1-yl)-5-(trifluoromethyl)-phenyl)picolinamide]: on SRPK1, the IC50 is 3.4 nM.
`CC1(CN2CCOCC2)CCN(c2ccc(C(F)(F)F)cc2NC(=O)c2ccc(C3CCOCC3)o2)CC1` [Example 97, N-(2-(4-methyl-4-(morpholinomethyl)piperidin-1-yl)-5-(trifluoromethyl)phenyl)-5-(tetrahydro-2H-pyran-4-yl)furan-2-carboxamide]: the IC50 was more than 30000 nM on CYP1A2 (setting [1]); 8100 nM on CYP2D6; 2700 nM at CYP2C19 (setting [2]); 9400 nM on CYP3A4 (setting [3]); 6 nM on SRPK1; 200 nM on CYP2C9 (setting [4]).
For the compound `O=C(Nc1cc(C(F)(F)F)ccc1N1CCC(O)(Cc2ccccc2)CC1)c1ccc(C2CCOCC2)o1` [Example 19], the IC50 on CYP1A2 (setting [1]) was 15300 nM; at CYP2D6 it was more than 30000 nM; at CYP2C19 (setting [2]), 12300 nM; at CYP3A4 (setting [3]) it was 18800 nM; on SRPK1, 39 nM; at CYP2C9 (setting [4]), 12700 nM.
Regarding `CC1(O)CCCN(c2ccc(C(F)(F)F)cc2NC(=O)c2ccc(C3CCOCC3)o2)CC1` (racemic) [Example 40, N-(2-(4-hydroxy-4-methylazepan-1-yl)-5-(trifluoromethyl)phenyl)-5-(tetrahydro-2H-pyran-4-yl)furan-2-carboxamide], the IC50 on CYP1A2 (setting [1]) was more than 30000 nM; on CYP2D6, 26900 nM; on CYP2C19 (setting [2]), 10400 nM; on CYP3A4 (setting [3]), 10900 nM; against SRPK1 it was 1.6 nM; on CYP2C9 (setting [4]) it was 8450 nM.
As to `COc1ccc(N2CCC(C)(C(=O)N(C)C)CC2)c(NC(=O)c2ccc(C3CCOCC3)o2)c1` [Example 85, 1-(4-methoxy-2-(5-(tetrahydro-2H-pyran-4-yl)furan-2-carboxamido)phenyl)-N,N,4-trimethyl-piperidine-4-carboxamide], the IC50 at CYP1A2 (setting [1]) is more than 30000 nM; at CYP2D6, more than 30000 nM; on CYP2C19 (setting [2]), 21700 nM; on CYP3A4 (setting [3]), 20700 nM; against SRPK1, 43 nM; at CYP2C9 (setting [4]), 800 nM.
With `COc1ccc(N2CCC(C)(O)CC2)c(NC(=O)c2ccc(C3CCOCC3)o2)c1` [Example 15, N-(2-(4-hydroxy-4-methylpiperidin-1-yl)-5-methoxyphenyl)-5-(tetrahydro-2H-pyran-4-yl)furan-2-carboxamide], the IC50 at CYP1A2 (setting [1]) was found to be 6270 nM; against CYP2D6 it was 19100 nM; on CYP2C19 (setting [2]) it was 7690 nM; on CYP3A4 (setting [3]), 10600 nM; against SRPK1, 5.2 nM; at CYP2C9 (setting [4]) it was 2970 nM.
Consider `O=C(Nc1cc(C(F)(F)F)ccc1N1CCC(O)(C2CC2)CC1)c1ccc(C2CCOCC2)o1` [Example 21, N-(2-(4-cyclopropyl-4-hydroxypiperidin-1-yl)-5-(trifluoromethyl)-phenyl)-5-(tetrahydro-2H-pyran-4-yl)furan-2-carboxamide], for which the IC50 is more than 30000 nM on CYP1A2 (setting [1]); 7140 nM against CYP2D6; 6140 nM on CYP2C19 (setting [2]); 20900 nM at CYP3A4 (setting [3]); 9 nM against SRPK1; 6350 nM on CYP2C9 (setting [4]).
At SRPK1, `O=C(Nc1cc(C(F)(F)F)ccc1N1CCC(CO)CC1)c1ccccn1` [Example 31, N-(2-(4-(hydroxymethyl)piperidin-1-yl)-5-(trifluoromethyl)phenyl)picolinamide] gave an IC50 of 41 nM.
Still for that read-out and setting: the result for `O=C(Nc1cc(C(F)(F)F)ccc1N1CCC(C(=O)O)CC1)c1ccccn1` [Example 30, 1-(2-(picolinamido)-4-(trifluoromethyl)phenyl)-piperidine-4-carboxylic acid] reads 76 nM.
As to “5-(pyridin-4-yl)-N-(2-(5-(thiazol-2-ylmethyl)piperazin-1-yl)-5-(trifluoromethyl)phenyl)furan-2-carboxamide [Reference Example 5, reference compound]”, the IC50 was found to be 15200 nM on CYP1A2 (microsomes); 200 nM at CYP2D6 (microsomes); 230 nM against CYP2C19 (microsomes); 610 nM against CYP3A4 (microsomes); 250 nM on CYP2C9 (microsomes).
As for `O=C(Nc1cc(C(F)(F)F)ccc1N1CCN(Cc2ccccn2)CC1)c1ccc(-c2ccncc2)o1` [Reference Example 1, reference compound], the IC50 is more than 30000 nM on CYP1A2 (setting [1]); 740 nM at CYP2D6 (human liver microsomes, 10 min incubation, LC-MS/MS, read-out: CYP Inhibition Activity (IC50/nM) CYP2D6); 230 nM at CYP2C19 (setting [2]); 310 nM on CYP3A4 (setting [3]); 170 nM on CYP2C9.
Regarding `CC1(O)CCCN(c2ccc(C3CC3)cc2NC(=O)c2ccc(-c3ccncc3)o2)CC1` (racemic) [Example 39, N-(5-cyclopropyl-2-(4-hydroxy-4-methylazepan-1-yl)phenyl)-5-(pyridin-4-yl)-furan-2-carboxamide], the IC50 was 17600 nM on CYP1A2 (setting [1]); more than 30000 nM against CYP2D6; 18300 nM on CYP3A4 (setting [3]); 35 nM against SRPK1; 11500 nM at CYP2C9 (setting [4]).
On the same counts, the results for `CC1(CN)CCN(c2ccc(C(F)(F)F)cc2NC(=O)c2ccc(C3CCOCC3)o2)CC1` [Example 81, N-(2-(4-(aminomethyl)-4-methylpiperidin-1-yl)-5-(trifluoromethyl)phenyl)-5-(tetrahydro-2H-pyran-4-yl)furan-2-carboxamide] are more than 30000 nM, 5010 nM, 21200 nM, 2.6 nM and 23000 nM.
Turning to `O=C(Nc1cc(C(F)(F)F)ccc1N1CCN(Cc2cc[nH]n2)CC1)c1ccc(C2CCOCC2)o1` [Reference Example 3, N-(2-(4-((1H-pyrazol-3-yl)methyl)piperazin-1-yl)-5-(trifluoromethyl)-phenyl)-5-(tetrahydro-2H-pyran-4-yl)furan-2-carboxamide, reference compound], the IC50 at CYP1A2 (setting [1]) was more than 30000 nM; against CYP2D6, 7080 nM; on CYP2C19 (setting [2]) it was 610 nM; at CYP3A4 (setting [3]), 4160 nM; at CYP2C9 (setting [4]), 230 nM.
On the same counts, the results for `O=C(Nc1cc(C(F)(F)F)ccc1N1CCN(Cc2ccco2)CC1)c1ccc(-c2ccncc2)o1` [Reference Example 2, N-(2-(4-(furan-2-ylmethyl)piperazin-1-yl)-5-(trifluoromethyl)phenyl)-5-(pyridin-4-yl)furan-2-carboxamide, reference compound] are 21800 nM, 260 nM, 690 nM, 1180 nM and 610 nM.
On to `O=C(Nc1cc(C(F)(F)F)ccc1N1CCN(Cc2cocn2)CC1)c1ccc(-c2ccncc2)o1` [Reference Example 4, N-(2-(4-(oxazol-4-ylmethyl)piperazin-1-yl)-5-(trifluoromethyl)phenyl)-5-(pyridin-4-yl)furan-2-carboxamide, reference compound], for which the IC50 at CYP1A2 (setting [1]) is more than 30000 nM; at CYP2D6, 550 nM; at CYP2C19 (setting [2]), 290 nM; at CYP3A4 (setting [3]), 830 nM; at CYP2C9 (setting [4]) it was 170 nM.
